Effect on parasitemia and toxicity data for one compound are collected here from article PMC7613620, “Reaction hijacking of tyrosine tRNA synthetase as a whole-of-life-cycle antimalarial strategy” (Science (New York, N.Y.), 2022).

The structures appear in SMILES notation.

The data set deals with P. falciparum Pf3D70087/N9. The experiment in a line: Therapeutic efficacy in SCID mouse P. falciparum model. Format: in vivo, Plasmodium falciparum. To be noted: single dose 50 mg/kg i.p. An excerpt: 589 by genomic sequencing and were routinely tested for mycoplasma contamination using MycoAlert™
590 Mycoplasma Detection Kit (Lonza, Capsugel Australia).
592 E1-E2 Transthiolation Assays
593 An Homogeneous Time-Resolved Fluorescence (HTRF) enzyme assay was employed to evaluate
594 compound activity against ATG7 as previously described (11). In this assay, a Flag-tagged ATG8 homolog
595 (GABA type A receptor-associated protein; GABARAP) is activated by ATG7 and then transthiolated to a
596 GST-tagged E2 (ATG3). The product of the enzyme reaction, Flag-GABARAP-ATG3-GST, is quantified
597 by measuring FRET between Europium-Cryptate labelled monoclonal anti-Flag M2 (CisBio International,
598 Cat# 61FG2KLB) and PHYCOLINK goat anti-GST allophycocyanin (Prozyme, PJ252p1). The activation
599 and transthiolation of ubiquitin by Ubiquitin Activating Enzyme, activation and transthiolation of NEDD8 […]
605 Activity against male gametes was assessed using the dual gamete formation assay (PfDGFA)(32). […]
609 exflagellation was recorded and quantified by automated microscopy. […]
610 express Pfs25 on their surface after 24 h at 28°C was assessed by single-image fluorescence microscopy. […]
624 falciparum (Pf3D70087/N9) on day 0. The antimalarial efficacy was assessed following administration (i.p.) […]
638 precipitated with acetonitrile and the remaining compound was assessed by LC-MS/MS in the selected reaction […]

Regarding `Nc1ncnc2c1c(OC(F)F)nn2[C@@H]1O[C@H](COS(N)(=O)=O)[C@@H](O)[C@H]1O` [ML901], the effect on parasitemia result (SCID mice engrafted with P. falciparum infected human RBCs) was “reduction of parasitemia to baseline”. Besides, the toxicity result (SCID mice) is reported as “no evidence of toxicity”.
